Experiments:
human 17βHSD type 5 = biological target: T1, human 17βHSD type 5 (Homo sapiens, UniProt P42330); assay: Inhibition of recombinant 17βHSD type 5, tritium-labeled substrate conversion; type: biochemical; conditions: 1 μmol · l^−1 test substance
T1 construct: made in house; host or cells: bacteria (Escherichia coli); supernatant of the lysate
T1 sequence (P42330 1-323): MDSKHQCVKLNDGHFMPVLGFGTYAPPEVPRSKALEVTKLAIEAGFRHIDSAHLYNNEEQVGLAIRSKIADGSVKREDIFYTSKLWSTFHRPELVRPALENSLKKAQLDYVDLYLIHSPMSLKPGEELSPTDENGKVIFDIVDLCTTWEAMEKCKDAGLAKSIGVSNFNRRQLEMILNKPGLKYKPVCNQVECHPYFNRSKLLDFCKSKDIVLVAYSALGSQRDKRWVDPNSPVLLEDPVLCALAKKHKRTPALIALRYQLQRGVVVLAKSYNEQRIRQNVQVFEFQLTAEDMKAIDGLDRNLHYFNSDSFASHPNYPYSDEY
Experimental: (§1) The inhibitory activity of the test substances was determined for individual isoenzymes from the 17βHSD family, specifically these were the types 1, 2, 3, 4, 5 and 7. Escherichia coli and mammalian cells expression systems were used for recombinant expression of individual isozymes of human 17βHSD. Only in the case of 17HSD5 the enzyme was partially purified and supernatant obtained by centrifugation of the bacterial lysate was used for testing. Systems expressing specific 17βHSD type were suspended in a reaction buffer and incubated with tritium-labeled substrates and respective cofactors at 37° C. in two parallel tests: the control arrangement (DMSO without the inhibitor) and the test arrangement (DMSO with the inhibitor). DMSO serves as a negative control in this case. After 20-30% of the substrate was converted by the activity of the enzyme to the product in a control test, both tests were terminated. Substrate and product from the test arrangement were isolated by SPE (solid phase extraction), and then separated by reverse phase HPLC. Substrate conversion was determined by integration of the signals of the substrate and product, and was expressed in %. For the purposes of the subsequent calculation of enzyme inhibition, the conversion of the control test was designated as 0% inhibition. All tests were performed in triplicates. IC50 values were subsequently determined by a standard method using the “One Ligand Binding” model of SigmaPlot kinetics module (Schustera et. al. J. Ster. Biochem. Mol. Biol. 2011, 125, 148; Möller et. al. Biioorg. Med. Chem. Lett. 2009, 19, 6740; Möller et. al. PLoS One, 2010, 5, 6, e10969).

human 17βHSD type 1 = biological target: T2, human 17βHSD type 1 (Homo sapiens, UniProt P14061); assay: Inhibition of recombinant 17βHSD type 1, tritium-labeled substrate conversion; type: biochemical; conditions: for inhibition at 0.1 µM: 0.1 μmol · l^−1 test substance; for inhibition at 0.1 µM / inhibition at 1 µM: read-out: % of inhibition of human 17βHSD1; for inhibition at 1 µM: 1 μmol · l^−1 test substance
T2 construct: made in house; expressing system suspended in buffer, not purified
T2 sequence (P14061 1-328): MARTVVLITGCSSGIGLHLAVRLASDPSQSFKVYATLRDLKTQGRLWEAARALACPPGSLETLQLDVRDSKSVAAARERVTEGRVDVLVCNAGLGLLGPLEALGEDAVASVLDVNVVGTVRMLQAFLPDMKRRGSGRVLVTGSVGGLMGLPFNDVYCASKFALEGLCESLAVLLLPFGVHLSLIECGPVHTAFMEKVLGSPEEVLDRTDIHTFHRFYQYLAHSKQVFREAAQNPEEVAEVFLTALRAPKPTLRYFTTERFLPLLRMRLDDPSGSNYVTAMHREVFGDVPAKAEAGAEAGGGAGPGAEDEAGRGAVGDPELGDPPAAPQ
Experimental: as §1

MDA-MB-231 = assay: 7 day proliferation assay, MDA-MB-231; type: cell-based; conditions: 1 μmol·l^−1, 7 days
Experimental: In this study, T47D cells were propagated in RPMI 1640 medium supplemented with 10% fetal bovine serum, 2 mmol^·l^−1 glutaMAX (Thermo Fisher Scientific, MA, USA), and penicillin/streptomycin (Thermo Fisher Scientific, Waltham, USA) and incubated in a 5% CO2-humidified atmosphere at 37° C. to the amount needed for the experiment. Two days prior to testing of compounds, growth medium was changed to medium without phenol red, supplemented with 2 mmol^·l^−1 Glutamax and 4% FBS depleted of lipophilic components (including the endogenous estrogenic substances) (Hyclone, GE Healthcare Life Sciences, USA). Two days after the medium replacement, the cells were harvested, counted and resuspended in a medium. Cells were dispensed with liquid dispenser Multidrop (Thermo Fisher Scientific, Waltham, USA), to the cell culture treated, 12-well plates (Corning Inc., NY, USA) at 100 000 cells/well in 1 mL of total media volume. […] After 7 days of cell cultivation with compounds, cells were harvested and counted. […]
Compounds 9 and 12 were tested in the proliferation assay with cell lines derived from the triple negative breast cancer (MDA-MB-231), AR-negative prostate cancer (PC3, DU145) and ovarian cancer (SK-OV-3, CaoV-3). […] At the end of the treatment, cells were harvested and counted. […]

Row | Compound | % of inhibition of human 17βHSD5 (human 17βHSD type 5) [%] | inhibition at 0.1 µM (human 17βHSD type 1) [%] | inhibition at 1 µM (human 17βHSD type 1) [%] | IC50 (human 17βHSD type 1; read-out: 17βHSD1 IC50) [nM] | % of survived cells compared to untreated samples, MDA-MB-231 (MDA-MB-231) [%]
1 | COc1ccc(CC[C@@H]2CC(=O)[C@@]3(C)CC[C@@H]4c5ccc(O)cc5CC[C@H]4[C@H]23)cc1 [Compound 9, 3-Hydroxy-15β-(4-methoxyphenethyl)-estra-1,3,5 (10)-trien-17-one] | 91 | 91 | 100 | 10 | 106
2 | CCOc1ccc(CC[C@@H]2CC(=O)[C@@]3(C)CC[C@@H]4c5ccc(O)cc5CC[C@H]4[C@H]23)cc1 [Compound 12, 15β-(4-Ethoxyphenethyl)-3-hydroxy-estra-1,3,5(10)-trien-17-one] | 80 | 85 | 88 |  | 98
